From publication PMC6978363, “Chaperone mediated detection of small molecule target binding in cells” (Nature Communications, 2020)

How the values were obtained:
Assay in all cases: biochemical
Details in all cases: read-out: % Inhibition (at 10mM)
ITK = ITK (Homo sapiens, UniProt Q08881)
PRKAA2_B1_G2 = target: T1, PRKAA2_B1_G2 (Homo sapiens, UniProt P54646)
T1 construct: gene PRKAA2

FGFR3 = FGFR3 (Homo sapiens, UniProt P22607)
Axl = Axl (Homo sapiens, UniProt P30530)
PIM2 = PIM2 (Homo sapiens, UniProt Q9P1W9)
PIM2, sequence (Q9P1W9 whole entry): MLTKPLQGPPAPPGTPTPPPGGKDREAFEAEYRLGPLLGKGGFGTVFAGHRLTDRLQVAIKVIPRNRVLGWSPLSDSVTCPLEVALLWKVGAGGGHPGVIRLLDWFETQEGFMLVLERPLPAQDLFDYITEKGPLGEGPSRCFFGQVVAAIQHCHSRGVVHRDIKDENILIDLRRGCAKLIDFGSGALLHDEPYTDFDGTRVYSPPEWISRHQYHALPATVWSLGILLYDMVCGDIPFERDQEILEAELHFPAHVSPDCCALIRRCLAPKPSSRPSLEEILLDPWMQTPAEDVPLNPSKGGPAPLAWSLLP

CDK2/cyclinA = CDK2/cyclinA (Homo sapiens, UniProt P24941)
EphB1 = EphB1 (Homo sapiens, UniProt P54762)
DYRK3 = DYRK3 (Homo sapiens, UniProt O43781)
Hyl = target: T2, Hyl (Homo sapiens, UniProt P42679)
T2 construct: gene MATK

PIM3 = PIM3 (Homo sapiens, UniProt Q86V86)
Src_N1 = target: T3, Src_N1 (Homo sapiens, UniProt P12931)
T3 construct: gene SRC; isoform N1

MRCK_alpha = target: T4, MRCK_alpha (Homo sapiens, UniProt Q5VT25)
T4 construct: gene CDC42BPA

ACVR1B = ACVR1B (Homo sapiens, UniProt P36896)
ACVR1B, sequence (P36896 whole entry): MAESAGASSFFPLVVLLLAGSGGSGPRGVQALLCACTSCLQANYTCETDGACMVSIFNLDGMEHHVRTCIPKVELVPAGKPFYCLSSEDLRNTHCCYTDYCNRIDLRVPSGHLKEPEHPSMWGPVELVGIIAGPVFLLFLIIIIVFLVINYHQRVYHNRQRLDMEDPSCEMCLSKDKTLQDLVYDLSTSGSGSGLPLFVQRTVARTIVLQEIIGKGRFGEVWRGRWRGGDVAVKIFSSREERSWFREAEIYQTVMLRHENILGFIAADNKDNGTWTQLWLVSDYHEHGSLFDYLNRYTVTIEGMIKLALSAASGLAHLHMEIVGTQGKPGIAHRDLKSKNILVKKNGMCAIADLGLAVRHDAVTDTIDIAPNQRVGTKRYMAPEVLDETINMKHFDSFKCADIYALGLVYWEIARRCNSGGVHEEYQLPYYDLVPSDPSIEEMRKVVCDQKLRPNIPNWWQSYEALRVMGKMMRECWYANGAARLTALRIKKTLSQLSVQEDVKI

Aurora_A = target: T5, Aurora_A (Homo sapiens, UniProt O14965)
T5 construct: gene AURKA

TBK1 = TBK1 (Homo sapiens, UniProt Q9UHD2)
ALK = ALK (Homo sapiens, UniProt Q9UM73)
CK1_alpha1L = target: T6, CK1_alpha1L (Homo sapiens, UniProt Q8N752)
T6 construct: gene CSNK1A1L

EphA8 = EphA8 (Homo sapiens, UniProt P29322)
Fyn = Fyn (Homo sapiens, UniProt P06241)
PKC_alpha = target: T7, PKC_alpha (Homo sapiens, UniProt P17252)
T7 construct: gene PRKCA

JAK1 = JAK1 (Homo sapiens, UniProt P23458)
CLK1 = CLK1 (Homo sapiens, UniProt P49759)
MLK1 = target: T8, MLK1 (Homo sapiens, UniProt P80192)
T8 construct: gene MAP3K9

DMPK2 = target: T9, DMPK2 (Homo sapiens, UniProt Q6DT37)
T9 construct: gene CDC42BPG

TrkA = target: T10, TrkA (Homo sapiens, UniProt P04629)
T10 construct: gene NTRK1

MYLK2(skMLCK) = MYLK2(skMLCK) (Homo sapiens, UniProt Q9H1R3)
PKC_epsilon = target: T11, PKC_epsilon (Homo sapiens, UniProt Q02156)
T11 construct: gene PRKCE

PAK4 = PAK4 (Homo sapiens, UniProt O96013)
PAK4, sequence (O96013 whole entry): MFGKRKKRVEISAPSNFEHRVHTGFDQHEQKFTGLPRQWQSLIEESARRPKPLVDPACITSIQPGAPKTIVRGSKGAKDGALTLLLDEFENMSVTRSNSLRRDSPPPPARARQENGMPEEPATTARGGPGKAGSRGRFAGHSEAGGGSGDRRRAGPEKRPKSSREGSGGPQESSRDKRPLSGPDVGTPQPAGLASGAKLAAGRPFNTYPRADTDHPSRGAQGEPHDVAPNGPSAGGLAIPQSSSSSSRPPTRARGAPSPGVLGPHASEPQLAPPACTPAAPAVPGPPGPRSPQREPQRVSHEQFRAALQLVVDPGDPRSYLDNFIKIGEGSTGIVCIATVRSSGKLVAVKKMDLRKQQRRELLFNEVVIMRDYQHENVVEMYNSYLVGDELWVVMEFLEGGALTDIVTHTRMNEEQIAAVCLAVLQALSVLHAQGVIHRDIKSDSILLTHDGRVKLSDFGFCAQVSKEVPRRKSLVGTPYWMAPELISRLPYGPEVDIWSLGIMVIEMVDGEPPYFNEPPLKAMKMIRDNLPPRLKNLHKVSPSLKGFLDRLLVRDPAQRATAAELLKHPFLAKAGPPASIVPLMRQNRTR

KHS1 = target: T12, KHS1 (Homo sapiens, UniProt Q9Y4K4)
T12 construct: gene MAP4K5

FGFR2 = FGFR2 (Homo sapiens, UniProt P21802)
FGFR2, sequence (P21802 whole entry): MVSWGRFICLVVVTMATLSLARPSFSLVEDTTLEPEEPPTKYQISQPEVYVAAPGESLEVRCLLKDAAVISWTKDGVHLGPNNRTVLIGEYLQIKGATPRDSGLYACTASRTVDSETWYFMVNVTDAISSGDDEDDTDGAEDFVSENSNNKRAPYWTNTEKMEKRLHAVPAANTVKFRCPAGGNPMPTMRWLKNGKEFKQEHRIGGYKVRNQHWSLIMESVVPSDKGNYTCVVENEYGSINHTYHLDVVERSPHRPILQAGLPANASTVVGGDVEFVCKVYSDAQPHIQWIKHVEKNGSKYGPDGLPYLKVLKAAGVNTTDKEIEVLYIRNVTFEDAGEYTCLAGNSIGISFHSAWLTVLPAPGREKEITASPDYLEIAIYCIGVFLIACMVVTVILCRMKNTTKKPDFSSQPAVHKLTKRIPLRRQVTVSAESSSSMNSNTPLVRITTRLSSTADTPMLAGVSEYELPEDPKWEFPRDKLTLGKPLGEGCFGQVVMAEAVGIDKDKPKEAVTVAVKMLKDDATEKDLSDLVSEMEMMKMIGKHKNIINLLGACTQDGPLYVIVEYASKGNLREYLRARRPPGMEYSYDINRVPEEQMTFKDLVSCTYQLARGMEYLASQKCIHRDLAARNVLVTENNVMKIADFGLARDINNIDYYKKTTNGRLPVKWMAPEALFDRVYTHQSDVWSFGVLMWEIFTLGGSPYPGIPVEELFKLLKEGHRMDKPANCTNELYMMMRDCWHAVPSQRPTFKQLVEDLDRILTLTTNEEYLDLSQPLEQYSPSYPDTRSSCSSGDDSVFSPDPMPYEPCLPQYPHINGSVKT

MELK = MELK (Homo sapiens, UniProt Q14680)
IKK_epsilon = target: T13, IKK_epsilon (Homo sapiens, UniProt Q14164)
T13 construct: gene IKBKE

MARK4 = MARK4 (Homo sapiens, UniProt Q96L34)
CamKII_delta = target: T14, CamKII_delta (Homo sapiens, UniProt Q13557)
T14 construct: gene CAMK2D
T14 sequence (Q13557 whole entry): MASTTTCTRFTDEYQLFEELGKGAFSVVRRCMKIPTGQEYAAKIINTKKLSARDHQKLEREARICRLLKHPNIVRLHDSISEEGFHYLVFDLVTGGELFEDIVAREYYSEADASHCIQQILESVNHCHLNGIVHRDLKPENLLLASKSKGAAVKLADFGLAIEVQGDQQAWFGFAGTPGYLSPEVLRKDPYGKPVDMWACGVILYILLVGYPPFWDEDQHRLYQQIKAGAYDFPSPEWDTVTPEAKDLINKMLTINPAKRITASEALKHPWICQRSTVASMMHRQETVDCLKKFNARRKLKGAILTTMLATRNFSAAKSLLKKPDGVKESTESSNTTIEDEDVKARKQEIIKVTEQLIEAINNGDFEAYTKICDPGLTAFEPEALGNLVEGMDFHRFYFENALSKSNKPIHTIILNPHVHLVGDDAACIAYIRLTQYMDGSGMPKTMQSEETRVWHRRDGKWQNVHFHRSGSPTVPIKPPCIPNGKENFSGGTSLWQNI

PAK6 = PAK6 (Homo sapiens, UniProt Q9NQU5)
CamKII_alpha = target: T15, CamKII_alpha (Homo sapiens, UniProt Q9UQM7)
T15 construct: gene CAMK2A
T15 sequence (Q9UQM7 whole entry): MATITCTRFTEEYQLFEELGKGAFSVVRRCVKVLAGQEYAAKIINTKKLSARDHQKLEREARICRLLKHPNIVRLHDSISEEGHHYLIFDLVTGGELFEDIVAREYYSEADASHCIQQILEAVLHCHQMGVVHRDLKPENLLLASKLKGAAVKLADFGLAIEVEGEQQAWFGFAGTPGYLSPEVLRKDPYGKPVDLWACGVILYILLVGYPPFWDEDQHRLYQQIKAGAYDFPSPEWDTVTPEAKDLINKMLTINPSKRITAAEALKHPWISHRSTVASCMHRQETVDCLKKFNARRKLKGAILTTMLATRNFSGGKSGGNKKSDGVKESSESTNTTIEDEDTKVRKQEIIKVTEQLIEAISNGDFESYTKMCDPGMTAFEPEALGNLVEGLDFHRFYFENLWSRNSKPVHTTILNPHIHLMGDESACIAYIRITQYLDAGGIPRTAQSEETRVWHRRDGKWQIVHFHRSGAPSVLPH

PRKAA2 = PRKAA2 (Homo sapiens, UniProt P54646)
ZIPK = target: T16, ZIPK (Homo sapiens, UniProt O43293)
T16 construct: gene DAPK3
T16 sequence (O43293 whole entry): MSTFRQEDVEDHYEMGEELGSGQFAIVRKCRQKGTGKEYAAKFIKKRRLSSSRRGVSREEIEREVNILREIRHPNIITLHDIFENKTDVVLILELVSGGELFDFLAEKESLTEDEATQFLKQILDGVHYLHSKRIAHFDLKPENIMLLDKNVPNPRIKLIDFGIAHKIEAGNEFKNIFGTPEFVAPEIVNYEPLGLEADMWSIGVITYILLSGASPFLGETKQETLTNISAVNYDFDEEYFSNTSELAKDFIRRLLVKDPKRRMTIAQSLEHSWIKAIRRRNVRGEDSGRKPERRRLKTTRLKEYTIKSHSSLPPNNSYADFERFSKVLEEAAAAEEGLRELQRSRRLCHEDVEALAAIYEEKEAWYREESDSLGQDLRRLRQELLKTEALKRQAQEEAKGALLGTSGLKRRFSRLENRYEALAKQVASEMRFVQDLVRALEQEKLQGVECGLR

Axl, sequence (P30530 whole entry): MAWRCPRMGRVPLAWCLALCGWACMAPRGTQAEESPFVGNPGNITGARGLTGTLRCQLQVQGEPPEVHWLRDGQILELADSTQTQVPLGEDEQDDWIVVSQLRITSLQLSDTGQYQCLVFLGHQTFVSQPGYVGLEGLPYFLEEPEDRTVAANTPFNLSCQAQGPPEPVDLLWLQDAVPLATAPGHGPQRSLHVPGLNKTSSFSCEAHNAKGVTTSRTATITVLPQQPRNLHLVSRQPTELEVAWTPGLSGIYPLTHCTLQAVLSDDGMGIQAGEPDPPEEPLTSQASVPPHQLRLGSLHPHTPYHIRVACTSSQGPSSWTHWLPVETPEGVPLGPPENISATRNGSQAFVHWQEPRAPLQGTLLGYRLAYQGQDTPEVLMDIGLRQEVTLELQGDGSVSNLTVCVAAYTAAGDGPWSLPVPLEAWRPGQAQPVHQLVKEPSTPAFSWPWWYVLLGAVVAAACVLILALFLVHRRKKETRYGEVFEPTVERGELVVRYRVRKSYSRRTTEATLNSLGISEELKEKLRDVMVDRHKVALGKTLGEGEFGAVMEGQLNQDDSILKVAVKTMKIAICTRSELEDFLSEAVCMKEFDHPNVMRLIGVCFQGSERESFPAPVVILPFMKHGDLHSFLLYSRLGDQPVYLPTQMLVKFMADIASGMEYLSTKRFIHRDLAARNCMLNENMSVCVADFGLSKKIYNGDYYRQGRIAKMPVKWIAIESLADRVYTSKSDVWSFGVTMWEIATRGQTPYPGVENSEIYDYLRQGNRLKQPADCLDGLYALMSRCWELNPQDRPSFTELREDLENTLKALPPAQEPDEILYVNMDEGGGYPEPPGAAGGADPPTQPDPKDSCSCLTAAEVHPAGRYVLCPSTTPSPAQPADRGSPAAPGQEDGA

For `CC(C)(O)CC(=O)NCCn1ccc2ncnc(Nc3ccc(Oc4cccc(C(F)(F)F)c4)c(Cl)c3)c21` [TAK-285], the inhibition (ITK) was 1%, the inhibition (PRKAA2_B1_G2) was 4.5% and the inhibition (FGFR3) was -6%. It also gave an inhibition (Axl) of 5%, an inhibition (PIM2) of 5.5% and an inhibition (CDK2/cyclinA) of 4.5%. The inhibition (EphB1) was -6%, the inhibition (DYRK3) was -0.5% and the inhibition (Hyl) was -2.5%. It also gave an inhibition (PIM3) of 1%, an inhibition (Src_N1) of 23% and an inhibition (MRCK_alpha) of -3.5%. For the same compound, the inhibition (ACVR1B) was -5%, the inhibition (Aurora_A) was 17.5% and the inhibition (TBK1) was 8%. It also gave an inhibition (ALK) of 8.5%, an inhibition (CK1_alpha1L) of 3% and an inhibition (EphA8) of 8%. It also gave an inhibition (Fyn) of 53%, an inhibition (PKC_alpha) of 13.5% and an inhibition (JAK1) of 0%. The inhibition (CLK1) was 10.5%, the inhibition (MLK1) was 6.5% and the inhibition (DMPK2) was 2%. It also gave an inhibition (TrkA) of 29%, an inhibition (MYLK2(skMLCK)) of -3% and an inhibition (PKC_epsilon) of 16%. The inhibition (PAK4) was 5.5%, the inhibition (KHS1) was 40.5% and the inhibition (FGFR2) was 2%. For the same compound, the inhibition (MELK) was 5.5%, the inhibition (IKK_epsilon) was 5.5% and the inhibition (MARK4) was 3.5%. For the same compound, the inhibition (CamKII_delta) was 6%, the inhibition (PAK6) was 5.5% and the inhibition (CamKII_alpha) was 2.5%. The inhibition (PRKAA2) was 10.5% and the inhibition (ZIPK) was 7%.
